22 compounds from patent US9376442B2, “Methylpyrrolopyrimidinecarboxamides” (Takeda GmbH, priority 2009, dated 2016) can be followed below.

One assay addresses T1, PDE5A1 (Homo sapiens, UniProt O76074).
T1 construct: from tissue; host or cells: human platelets from fresh donor blood (10,000 x g supernatant of sonicated lysate)
As to the kind of experiment: Inhibition of type 5 phosphodiesterase (PDE5) activity, modified SPA test with human platelet lysate. The class given is biochemical. The settings on record: 0.5 μM cGMP, read-out: PDE5A1 inhibitory values [measured as −log IC50 (mol/l)] (converted). An outline of the steps: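 Scintillation proximity assay with [3H]cGMP tracer at 0.5 μM total cGMP, stopped after 15 min with beads containing IBMX. PDE3 and PDE2 activities suppressed with motapizone (1 μM) and a PDE2 inhibitor (10 nM). Human platelet supernatant served as the enzyme, with compound preincubated 5 min at 37° C; IC50 values from concentration-effect curves.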

For a further assay, the target named is T2, PDE4B1 (Homo sapiens, UniProt Q07343).
T2 construct: made in house; host or cells: SF21 insect cells (baculovirus; pCRBac vector), 1000 x g supernatant of homogenate
As to the kind of experiment: Inhibition of type 4 phosphodiesterase (PDE4) activity, modified SPA test with recombinant PDE4B1 expressed in SF21 insect cells. The class given is biochemical. The settings on record: recombinant PDE4B1, 0.5 μM cAMP, read-out: PDE4B1 inhibitory values [measured as −log IC50 (mol/l)] (converted). An outline of the steps:
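Modified [3H]cAMP SPA using 1000×g supernatant of SF21 cells expressing recombinant human PDE4B1, in 20 mM Tris pH 7.4, 0.1 mg/ml BSA, 5 mM Mg2+, 0.5 μM cAMP. After 5 min preincubation at 37 °C, 15 min reaction, stopped with SPA beads plus IBMX; IC50 by non-linear regression.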

T2 sequence (Q07343 whole entry): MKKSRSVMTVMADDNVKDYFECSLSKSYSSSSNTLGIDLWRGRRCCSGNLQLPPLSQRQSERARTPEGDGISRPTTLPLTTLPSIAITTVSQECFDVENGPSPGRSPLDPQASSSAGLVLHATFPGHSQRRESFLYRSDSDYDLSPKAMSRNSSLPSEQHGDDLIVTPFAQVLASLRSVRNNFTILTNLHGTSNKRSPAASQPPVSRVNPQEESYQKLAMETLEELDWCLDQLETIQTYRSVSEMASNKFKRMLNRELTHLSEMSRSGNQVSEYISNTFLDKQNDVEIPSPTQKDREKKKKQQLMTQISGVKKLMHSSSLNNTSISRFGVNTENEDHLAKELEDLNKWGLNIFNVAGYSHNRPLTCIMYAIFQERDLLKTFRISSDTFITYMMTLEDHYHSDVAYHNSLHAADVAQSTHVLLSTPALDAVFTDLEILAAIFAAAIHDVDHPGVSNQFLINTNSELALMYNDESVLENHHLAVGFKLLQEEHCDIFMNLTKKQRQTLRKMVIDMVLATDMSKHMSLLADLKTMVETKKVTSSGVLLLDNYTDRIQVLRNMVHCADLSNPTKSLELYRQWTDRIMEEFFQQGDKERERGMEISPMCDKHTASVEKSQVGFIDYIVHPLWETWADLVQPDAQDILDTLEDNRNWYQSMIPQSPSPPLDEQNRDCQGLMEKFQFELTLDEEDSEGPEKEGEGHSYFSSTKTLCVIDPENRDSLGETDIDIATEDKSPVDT

Regarding `CC(=O)N[C@H]1CC[C@@H](NC(=O)c2c(C)[nH]c3c(-c4cc(C)ccc4OCC4CC4)ncnc23)CC1` [Example E87, N-[cis-4-(acetylamino)cyclohexyl]-4-[2-(cyclopropylmethoxy)-5-methylphenyl]-6-methyl-5H-pyrrolo[3,2-d]pyrimidine-7-carboxamide], the IC50 at PDE5A1 is less than 1 nM; on PDE4B1, less than 100 nM.
As for `CCC(=O)N[C@H]1CC[C@@H](NC(=O)c2c(C)[nH]c3c(-c4cc(C)ccc4OCC4CC4)ncnc23)CC1` [Example E88, 4-[2-(Cyclopropylmethoxy)-5-methylphenyl]-6-methyl-N-[cis-4-(propanoylamino)cyclohexyl]-5H-pyrrolo[3,2-d]pyrimidine-7-carboxamide], the figures for the IC50 on PDE5A1 and at PDE4B1 were less than 1 nM and less than 100 nM, respectively.
On the same counts, the results for `COCC(=O)N[C@H]1CC[C@@H](NC(=O)c2c(C)[nH]c3c(-c4cc(C)ccc4OCC4CC4)ncnc23)CC1` [Example E89, 4-[2-(Cyclopropylmethoxy)-5-methylphenyl]-N-{cis-4-[(methoxyacetyl)amino]cyclohexyl}-6-methyl-5H-pyrrolo[3,2-d]pyrimidine-7-carboxamide] are less than 1 nM and less than 100 nM.
Consider `CC(=O)N1CCC(NC(=O)c2c(C)[nH]c3c(-c4cc(C(F)(F)F)ccc4OCC4CC4)ncnc23)CC1` [Example E90, N-(1-Acetylpiperidin-4-yl)-4-[2-(cyclopropylmethoxy)-5-(trifluoromethyl)phenyl]-6-methyl-5H-pyrrolo[3,2-d]pyrimidine-7-carboxamide], for which the IC50 on PDE5A1 was less than 1 nM; at PDE4B1 it was less than 100 nM.
On the same counts, the results for `CCC(=O)N1CCC(NC(=O)c2c(C)[nH]c3c(-c4cc(C(F)(F)F)ccc4OCC4CC4)ncnc23)CC1` [Example E91, 4-[2-(Cyclopropylmethoxy)-5-(trifluoromethyl)phenyl]-6-methyl-N-(1-propanoylpiperidin-4-yl)-5H-pyrrolo[3,2-d]pyrimidine-7-carboxamide] are less than 1 nM and less than 100 nM.
Take `COCC(=O)N1CCC(NC(=O)c2c(C)[nH]c3c(-c4cc(C(F)(F)F)ccc4OCC4CC4)ncnc23)CC1` [Example E92, 4-[2-(Cyclopropylmethoxy)-5-(trifluoromethyl)phenyl]-N-[1-(methoxyacetyl)piperidin-4-yl]-6-methyl-5H-pyrrolo[3,2-d]pyrimidine-7-carboxamide]: the values for the IC50 on PDE5A1 and at PDE4B1 were less than 1 nM and less than 100 nM, respectively.
On the same counts, the results for `CC(=O)N[C@H]1CC[C@H](NC(=O)c2c(C)[nH]c3c(-c4cc(C(F)(F)F)ccc4OCC4CC4)ncnc23)CC1` [Example E93, N-[trans-4-(acetylamino)cyclohexyl]-4-[2-(cyclopropylmethoxy)-5-(trifluoromethyl)phenyl]-6-methyl-5H-pyrrolo[3,2-d]pyrimidine-7-carboxamide] are less than 1 nM and less than 100 nM.
With `CCC(=O)N[C@H]1CC[C@H](NC(=O)c2c(C)[nH]c3c(-c4cc(C(F)(F)F)ccc4OCC4CC4)ncnc23)CC1` [Example E94, 4-[2-(cyclopropylmethoxy)-5-(trifluoromethyl)phenyl]-6-methyl-N-[trans-4-(propanoylamino)cyclohexyl]-5H-pyrrolo[3,2-d]pyrimidine-7-carboxamide], the figures for the IC50 at PDE5A1 and on PDE4B1 were less than 1 nM and less than 100 nM, respectively.
Turning to `COCC(=O)N[C@H]1CC[C@H](NC(=O)c2c(C)[nH]c3c(-c4cc(C(F)(F)F)ccc4OCC4CC4)ncnc23)CC1` [Example E95, 4-[2-(Cyclopropylmethoxy)-5-(trifluoromethyl)phenyl]-N-{trans-4-[(methoxyacetyl)amino]cyclohexyl}-6-methyl-5H-pyrrolo[3,2-d]pyrimidine-7-carboxamide], the IC50 was less than 1 nM at PDE5A1 and less than 100 nM on PDE4B1.
Consider `CC(=O)N[C@H]1CC[C@@H](NC(=O)c2c(C)[nH]c3c(-c4cc(C(F)(F)F)ccc4OCC4CC4)ncnc23)CC1` [Example E96, N-[cis-4-(acetylamino)cyclohexyl]-4-[2-(cyclopropylmethoxy)-5-(trifluoromethyl)phenyl]-6-methyl-5H-pyrrolo[3,2-d]pyrimidine-7-carboxamide], for which the figures for the IC50 on PDE5A1 and at PDE4B1 were less than 1 nM and 100 to 1000 nM, respectively.
For `CCC(=O)N[C@H]1CC[C@@H](NC(=O)c2c(C)[nH]c3c(-c4cc(C(F)(F)F)ccc4OCC4CC4)ncnc23)CC1` [Example E97, 4-[2-(Cyclopropylmethoxy)-5-(trifluoromethyl)phenyl]-6-methyl-N-[cis-4-(propanoylamino)cyclohexyl]-5H-pyrrolo[3,2-d]pyrimidine-7-carboxamide], the results for the IC50 at PDE5A1 and on PDE4B1 were less than 1 nM and less than 100 nM, respectively.
Turning to `COCC(=O)N[C@H]1CC[C@@H](NC(=O)c2c(C)[nH]c3c(-c4cc(C(F)(F)F)ccc4OCC4CC4)ncnc23)CC1` [Example E98, 4-[2-(Cyclopropylmethoxy)-5-(trifluoromethyl)phenyl]-N-{cis-4-[(methoxyacetyl)amino]cyclohexyl}-6-methyl-5H-pyrrolo[3,2-d]pyrimidine-7-carboxamide], the IC50 on PDE5A1 is less than 1 nM; at PDE4B1, less than 100 nM.
Take `CCc1ccc(OCC2CC2)c(-c2ncnc3c(C(=O)NC4CCN(C(C)=O)CC4)c(C)[nH]c23)c1` [Example E145, N-(1-Acetylpiperidin-4-yl)-4-[2-(cyclopropylmethoxy)-5-ethylphenyl]-6-methyl-5H-pyrrolo[3,2-d]pyrimidine-7-carboxamide]: the results for the IC50 on PDE5A1 and at PDE4B1 were less than 1 nM and 100 to 1000 nM, respectively.
For the compound `CCC(=O)N1CCC(NC(=O)c2c(C)[nH]c3c(-c4cc(CC)ccc4OCC4CC4)ncnc23)CC1` [Example E146, 4-[2-(Cyclopropylmethoxy)-5-ethylphenyl]-6-methyl-N-(1-propanoylpiperidin-4-yl)-5H-pyrrolo[3,2-d]pyrimidine-7-carboxamide], the IC50 at PDE5A1 is less than 1 nM; on PDE4B1, 100 to 1000 nM.
Consider `CCc1ccc(OCC2CC2)c(-c2ncnc3c(C(=O)NC4CCN(C(=O)COC)CC4)c(C)[nH]c23)c1` [Example E147, 4-[2-(Cyclopropylmethoxy)-5-ethylphenyl]-N-[1-(methoxyacetyl)piperidin-4-yl]-6-methyl-5H-pyrrolo[3,2-d]pyrimidine-7-carboxamide], for which the IC50 at PDE5A1 was less than 1 nM; on PDE4B1, 100 to 1000 nM.
On to `CCc1ccc(OCC2CC2)c(-c2ncnc3c(C(=O)N[C@H]4CC[C@H](NC(C)=O)CC4)c(C)[nH]c23)c1` [Example E148, N-[trans-4-(Acetylamino)cyclohexyl]-4-[2-(cyclopropylmethoxy)-5-ethylphenyl]-6-methyl-5H-pyrrolo[3,2-d]pyrimidine-7-carboxamide], for which the IC50 at PDE5A1 is less than 1 nM; on PDE4B1 it was less than 100 nM.
On the same counts, the results for `CCC(=O)N[C@H]1CC[C@H](NC(=O)c2c(C)[nH]c3c(-c4cc(CC)ccc4OCC4CC4)ncnc23)CC1` [Example E149, 4-[2-(Cyclopropylmethoxy)-5-ethylphenyl]-6-methyl-N-[trans-4-(propanoylamino)cyclohexyl]-5H-pyrrolo[3,2-d]pyrimidine-7-carboxamide] are less than 1 nM and less than 100 nM.
For `CCc1ccc(OCC2CC2)c(-c2ncnc3c(C(=O)N[C@H]4CC[C@H](NC(=O)COC)CC4)c(C)[nH]c23)c1` [Example E150, 4-[2-(Cyclopropylmethoxy)-5-ethylphenyl]-N-{trans-4-[(methoxyacetyl)amino]cyclohexyl}-6-methyl-5H-pyrrolo[3,2-d]pyrimidine-7-carboxamide], the IC50 is less than 1 nM on PDE5A1 and less than 100 nM at PDE4B1.
With `CCc1ccc(OCC2CC2)c(-c2ncnc3c(C(=O)N[C@H]4CC[C@@H](NC(C)=O)CC4)c(C)[nH]c23)c1` [Example E151, N-[cis-4-(Acetylamino)cyclohexyl]-4-[2-(cyclopropylmethoxy)-5-ethylphenyl]-6-methyl-5H-pyrrolo[3,2-d]pyrimidine-7-carboxamide], the values for the IC50 on PDE5A1 and at PDE4B1 were less than 1 nM and 100 to 1000 nM, respectively.
On the same counts, the results for `CCC(=O)N[C@H]1CC[C@@H](NC(=O)c2c(C)[nH]c3c(-c4cc(CC)ccc4OCC4CC4)ncnc23)CC1` [Example E152, 4-[2-(Cyclopropylmethoxy)-5-ethylphenyl]-6-methyl-N-[cis-4-(propanoylamino)cyclohexyl]-5H-pyrrolo[3,2-d]pyrimidine-7-carboxamide] are less than 1 nM and 100 to 1000 nM.
Turning to `CCc1ccc(OCC2CC2)c(-c2ncnc3c(C(=O)N[C@H]4CC[C@@H](NC(=O)COC)CC4)c(C)[nH]c23)c1` [Example E153, 4-[2-(Cyclopropylmethoxy)-5-ethylphenyl]-N-{cis-4-[(methoxyacetyl)amino]cyclohexyl}-6-methyl-5H-pyrrolo[3,2-d]pyrimidine-7-carboxamide], the IC50 on PDE5A1 was less than 1 nM; at PDE4B1, 100 to 1000 nM.
On the same counts, the results for `CC(=O)N1CCC(NC(=O)c2c(C)[nH]c3c(-c4cc(C(C)C)ccc4OCC4CC4)ncnc23)CC1` [Example E157, N-(1-Acetylpiperidin-4-yl)-4-[2-(cyclopropylmethoxy)-5-(propan-2-yl)phenyl]-6-methyl-5H-pyrrolo[3,2-d]pyrimidine-7-carboxamide] are less than 1 nM and 100 to 1000 nM.
